Experiments:
HepG2 cells [1] = experiment: In vitro HDL internalization in human hepatocytes (HepG2) cells; assay type: cell-based; conditions: compound 1 μM; 3H-labeled HDL 75 μg/ml, 10 min at 37° C.
Procedure: FIG. 3: Single-dose effect of the selected molecules on HDL internalization by HepG2 cells. Cells were incubated for 10 min at 37° C. with 75 μg/ml ^3H cholesterol Cholesteryl Oleate [Cholesteryl-1,2-^3H(N)] HDL, Reference Compound (100 nM) and illustrative compounds of the invention (1 μM). Data are expressed as the percentage of internalized radioactivity with respect to the control value (set as […]). *p<0.005, **p<0.0001.
The effect of illustrative compounds of the invention on HDL internalization was measured by an in vitro assay on HepG2 cells (FIG. 3). ^3H cholesterol Cholesteryl Oleate [Cholesteryl-1,2-^3H(N)] labeled HDL] (available from PerkinElmer http://www.perkinelmer.com/Catalog/Product/ID/NET746L001MC) was loaded on HepG2 cells in presence of illustrative compounds of the invention (final concentration 1 μM). […] It was determined that Compounds XIa, IIc, IIa and Ih (R-isomer) have a strong impact on HDL uptake by HepG2 cells; Compounds IIb, VIIa and VIIIa have a modest impact on HDL uptake by HepG2 cells.
^3H cholesterol Cholesteryl Oleate [Cholesteryl-1,2-^3H(N)] (Perkin Elmer) solution (250 μL) was dried and resuspended in acetone (250 μL). The solution was mixed with Lipoprotein delipidated serum (20 mL at 40 mg/mL) and DTNB (0.4 μM final concentration). HDL (7 mg) was added and incubated overnight at 4° C. on gentle rotation. The HDL was purified on KBr gradient as previously described.
Hepatocytes were plated at 300,000 cells/well in 6×-well plates. Two days later, the cells were washed once with DMEM and incubated for 1 hour in DMEM at 37° C. 75 μg of radio-labeled HDL (6500 dpm/μg) were added to the medium and incubated for 10 minutes at 37° C. The cells were washed once with DMEM (2 mL) and incubated for 1.5 hours in DMEM at 4° C., whereupon dissociation occurred. Then the cells were washed once more with cold DMEM (2 mL) and the incorporated cholesterol ether was retrieved from HepG2 cells by the addition of hexane:isopropanol (3:2) solution (1 mL).

C57Bl6 mice = experiment: Dose response on bile physiology after single oral gavage in mice; assay type: in vivo; conditions: oral gavage 0.003, 0.03 and 0.3 mg/kg, bile analyzed 6 hours later
Procedure: FIG. 16A-J: Increase of bile secretion following activation of P2Y13r pathway in mice. C57Bl/6J mice (n=10) were fasted for 2 h and then intravenously injected with Cangrelor® or Compound IIa (10 nmoles/kg). Four hours later the gallbladders were removed and analyzed for: Bile acids content (FIG. 16A); Bile cholesterol content (FIG. 16B). C57Bl/6J mice (n=10) were fasted for 2 h followed by single oral dose of P2Y13r agonist Compound IIa at 3, 30 or 300 μg/kg. Six hours later bile acids contents (FIG. 16C); bile cholesterol content (FIG. 16D), and bile acid content of liver (FIG. 16E) were evaluated using HPLC and enzymatic kits for gallbladers. Plasma samples were collected at time 0 and after 6 h of treatment, then analyzed for: total cholesterol (▴), unesterified cholesterol (●), esterified cholesterol (▪) and HDL cholesterol (▾) determined using either enzymatic kits or Lipoprint® for HDL cholesterol (FIG. 16F). C57Bl/6J mice (n=5) were intravenously injected with [^3H]-cholesterol-labelled mouse HDL (FIG. 16G), [^3H]-cholesteryl oleate-labelled mouse HDL (FIG. 16H) or [^3H]-cholesterol-labelled mouse LDL (FIG. 16I), and with Cangrelor® or Compound IIa (10 nmoles/kg). Radioactivity present in the liver was determined 2 hours later for the HDL or 5 hours later for the LDL. Cholesterol content of feces from treated animals (100 μg/kg) was determined by Charge aerosol detection (FIG. 16J). *p<0.05, **p<0.01.
The dose response after oral gavage was determined for illustrative compounds of the invention. The chosen doses were 0.003, 0.03 and 0.3 mg/kg. The selected compounds of the invention were administrated by oral gavage and 6 hours later the mice are sacrificed and the bile content was analyzed (FIGS. 6-11).
Bile acids were diluted in PBS (1:5000) and the concentration was measured according to the manufacturer protocol with slight modifications. Concentrations of bile acids in the standard curve were varied from […] and the enzymatic reaction was performed for 20 minutes. 4 μl of 1:5000 bile dilution was used for concentration determination.
Bile phospholipids were measured according to the manufacturer protocol. Briefly, the standards were varied from 0 to 20 μg/ml and 4 μl of bile was measured in the assay. The reaction was performed for 5 minutes at 37° C.
Bile phospholipids were measured according to the manufacturer protocol. Briefly, the standards were varied from 0 to 60 μg/ml and 10 μl of bile (dilution 1:10) was measured in the assay. The reaction was performed for 5 minutes at 37° C.

human P2Y13 receptor = human P2Y13 receptor (Homo sapiens (Human), UniProt Q9BPV8); experiment: Ca++ flux agonist assay on P2Y13 receptor transfected 1321N1 cells; assay type: cell-based; conditions: comma is decimal sign
Sequence of human P2Y13 receptor (Q9BPV8 whole entry): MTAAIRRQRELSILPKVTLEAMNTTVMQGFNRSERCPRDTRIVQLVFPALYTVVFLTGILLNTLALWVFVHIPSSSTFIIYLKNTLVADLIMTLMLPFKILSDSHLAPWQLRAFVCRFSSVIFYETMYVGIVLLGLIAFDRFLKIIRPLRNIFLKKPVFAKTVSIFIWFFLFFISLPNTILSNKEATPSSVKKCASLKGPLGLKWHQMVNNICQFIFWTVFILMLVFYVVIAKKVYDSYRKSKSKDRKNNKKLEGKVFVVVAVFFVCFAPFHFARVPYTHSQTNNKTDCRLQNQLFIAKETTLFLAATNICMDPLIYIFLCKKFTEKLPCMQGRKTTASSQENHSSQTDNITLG
Procedure: Compounds were assayed for their agonist activity on P2Y13 GPCR transfected cells using a Ca++ flux assay (associated to fluorescent dye detection) with the Reference Compound as positive reference. Two cell lines, 1321N1-P2Y13 stably expressing human P2Y13 receptor, and 1321N1 parental cell line as control, were used in this assay. 1321N1 Parental and 1321N1 P2Y13 were seeded into T25 flasks at 3 million cells per flask, respectively. Cells were incubated at 37 degrees Celsius in 5% CO2 overnight. The day after, cells were transfected with Gqi5 protein using Fugene transfection reagent (Roche's Fugene Reagent).
After 24 hours of transfection, cells were collected from flasks and seeded in 384-well plates at 8000 cells per well. The assays were carried out 48 hours after Gqi5 transfection.
Methods: The Ca++ flux assay was conducted according to the manufacturer's protocol (Molecular Devices FLIPR Calcium 4 Assay kit (R8142). Briefly, cell culture media were aspirated from the wells and replaced with 25 μL of Hank's buffer or PBS buffer. 25 μL of Ca++ dye was added into each assay well. The plate was incubated for 1 hour at 37° C. in 5% CO2. After the incubation, the plate was transferred to FlexStation III (FlexStation III (Molecular Devices)). The compounds were automatically injected into each well.

HepG2 cells [2] = conditions: previously reported (Jacquet et al. 2005); positive control; cited from earlier work
[3] = Table 4, measured from data of Figure 2
[4] = Table 3, measured from data of Figure 1

| EC50 (human P2Y13 receptor; [3]) [µM] | EC50 (human P2Y13 receptor; [4]) [µM] | Compound | impact on HDL uptake by HepG2 cells (HepG2 cells [1]) | dose at which an effect on bile acids, bile cholesterol and bile phospholipids was shown (C57Bl6 mice) [µg/kg] | HDL uptake in HepG2 cells in vitro (HepG2 cells [2]) |
| --- | --- | --- | --- | --- | --- |
| 6.63 |  | 6-[1-(2-methylaminopyrimidin-5-ylmethyl)-piperidin-4-yl]-2-piperidin-1-yl-pyrimidin-4-ol [Compound IIc] | strong impact | 3 |  |
| 0.299 |  | COc1ccc(CN2CCC(c3cc(O)nc(N4CCCCC4)n3)CC2)cc1O [Compound IIb, 6-[1-(3-Hydroxy-4-methoxybenzyl)-piperidin-4-yl]-2-piperidin-1-yl-pyrimidin-4-ol] | modest impact | 300 |  |
|  | 42.4 | CCOC(=O)C(C)(C)CCCC[C@H](c1ccccc1Cl)N1CCc2sccc2C1 [Compound Ih (R-isomer)] | strong impact |  |  |
|  | 33.7 | CCOC(=O)C(C)(C)CCCC[C@@H](c1ccccc1Cl)N1CCc2sccc2C1 [Compound Ih (S-isomer)] |  |  |  |
|  |  | CCOc1cc(C2CC(=O)Nc3c2cnn3-c2ccccc2CC)ccc1O (stereo not shown) [Compound VIIIa, 4-(3-Ethoxy-4-hydroxy-phenyl)-1-(2-ethyl-phenyl)-1,4,5,7-tetrahydro-pyrazolo[3,4-b]pyridin-6-one] |  | 3 |  |
| 40.3 |  | O=C(C1OCCc2ccccc21)N1CCC2(CC1)Nc1ccccc1-n1cccc12 (stereo not shown) [Compound VIIa, isochroman-1-yl(5′H-spiro[piperidine-4,4′-pyrrolo[1,2-a]quinoxaline]-1-yl)methanone] | modest impact | 300 |  |
|  | 55.2 | CC(C)(CCCCCC(c1ccccc1Cl)N1CCC(O)/C(=C/C(=O)O)C1)C(=O)O (stereo not shown) [Compound Va] |  |  |  |
| 0.0489 |  | COCCNCC(=O)Nc1ccc2c(c1)OCCO2 [Compound XIa, N-(2,3-Dihydrobenzo[1,4]dioxin-6-yl)-2-(2-methoxy-ethylamino)-acetamide] | strong impact | 3 |  |
| 0.00632 |  | CSCCNc1nc(SCCC(F)(F)F)nc2c1ncn2[C@@H]1O[C@H](COP(=O)(O)OP(=O)(O)C(Cl)(Cl)P(=O)(O)O)[C@@H](O)[C@H]1O [Reference Compound, Dichloro-(((((2R,3S,4R,5R)-3,4-dihydroxy-5-(6-(2-(methylthio)ethylamino)-2-(3,3,3-trifluoropropylthio)-9H-purin-9-yl)tetrahydrofuran-2-yl)methoxy)(hydroxy)phosphoryloxy)(hydroxy)phosphoryl)-methylphosphonic acid, reference compound] |  |  | increase the HDL uptake |
